Source: patent US12351580B2, “NLRP3 modulators” (Innate Tumor Immunity, Inc., priority 2017, dated 2025)

target: T1, hNLRP3 (Homo sapiens, UniProt Q96P20); experiment: Measurement of IL-1β production in PMA-differentiated THP-1 cells (hNLRP3 agonist; ELISA, alternative and hTRF procedures); assay type: cell-based
T1 construct: THP-1 cells were purchased from the American Type Culture Collection; host or cells: THP-1 cells, PMA-differentiated
Method: Measurement of IL-1β production in PMA-differentiated THP-1 cells THP-1 cells were purchased from the American Type Culture Collection and sub-cultured according to instructions from the supplier. Prior to experiments, cells were cultured in RPMI 1640 containing 10% heat inactivated FBS, penicillin (100 units/ml) and streptomycin (100 μg/ml), and maintained in log phase prior to experimental setup. Prior to the experiment THP-1 were treated with PMA (Phorbol 12-myristate 13-acetate) ([…]) for 24 hours. The day of the experiment the media was removed and attaching cells were treated with trypsin for 2 minutes, cells were then collected, washed with PBS (phosphate buffer saline), spin down, resuspended in 2% heat inactivated FBS with RPMI at a concentration of 1×10^6 cells/ml, and 100 μl was plated in a 96 well plate. Compounds were dissolved in dimethyl sulfoxide (DMSO) and added to the culture medium to achieve desired concentration (e.g. 100, 30, 10, 3, 1, 0.3 or 0.1 μM). Cells were incubated with compounds for 4 hours. Cell free supernatant was collected and the production of […] was evaluated by ELISA. A vehicle only control was run concurrently with each experiment. Final DMSO concentration was 1%.
Measurement of IL-1β Production in PMA-Differentiated THP-1 Cells (Alternative Procedure)
THP-1 cells were purchased from the American Type Culture Collection and sub-cultured according to instructions from the supplier. Prior to experiments, cells were cultured in RPMI 1640 containing 10% heat inactivated FBS, penicillin (100 units/ml), streptomycin (100 μg/ml), HEPES (10 mM) and sodium pyruvate (1 mM) and maintained in log phase prior to experimental setup. Prior to the experiment, THP-1 cells were treated with PMA (Phorbol 12-myristate 13-acetate) (20 μg/ml) overnight. The day of the experiment, the media was removed and attached cells were treated with trypsin for 2 minutes, cells were then collected, washed with PBS (phosphate buffer saline), pelleted by centrifugation and resuspended in 2% heat inactivated FBS with RPMI at a concentration of 50,000 cells/well in a 384 well plate. Cell free supernatant was collected and the production of IL-1β was evaluated by ELISA. Compounds were dissolved in dimethyl sulfoxide (DMSO) and added to the culture medium to achieve desired concentration (e.g. 100, 30, 10, 3, 1, 0.3 or 0.1 μM). Cells were incubated with compounds for 2 hours. A vehicle only control was run concurrently with each experiment. Final DMSO concentration was 1%.
Measurement of IL-1β Production—hTRF Protocol (Second Alternative Procedure)
Serial dilutions of compounds in DMSO were added to low volume 384 well plates at 100 nl/well using an ECHO 550 acoustic dispenser (Labcyte) to achieve final starting concentration of 10 μM in assay.
THP-1 cells in RPMI (Gibco, 11875) media with 10% FBS at a density of 1×10^6 cell/ml in a T175 flask were treated with a final concentration of phorbol 12-myristate 13-acetate (PMA) (Sigma, P1585) of 50 ng/ml overnight at 37° C. at 5% CO2 for differentiation. Cells were harvested the next day after rinsing well with dPBS using 0.5% trypsin. A cell solution was prepared of 1×10^6 cells/ml for 50,000 cells in 50 μl/well in RPMI media with 2% FBS. Cells were plated using a multichannel pipette onto the compound dilutions in Greiner, 384 well, black clear bottom tissue culture treated plates (781090). The plates were incubated in 37° C. incubator at 5% CO2 for 2 hours.
After the 2 hour incubation, the cell plates were spun in the centrifuge for 5 minutes at 1200 rpm. Using the Felix (CyBio), 8 μl of the supernatant was transferred to 384 well, low volume, white proxy plates. (Perkin Elmer, 6008230). A human IL1beta hTRF kit was used to analyze the supernatant (CISBIO, 62HIL1BPEG). The kit instructions were followed for preparing the IL1Beta standard curve and then the antibodies from the kit were diluted 1:40 rather than 1:20 as kit instructed.

T1 sequence (Q96P20 whole entry): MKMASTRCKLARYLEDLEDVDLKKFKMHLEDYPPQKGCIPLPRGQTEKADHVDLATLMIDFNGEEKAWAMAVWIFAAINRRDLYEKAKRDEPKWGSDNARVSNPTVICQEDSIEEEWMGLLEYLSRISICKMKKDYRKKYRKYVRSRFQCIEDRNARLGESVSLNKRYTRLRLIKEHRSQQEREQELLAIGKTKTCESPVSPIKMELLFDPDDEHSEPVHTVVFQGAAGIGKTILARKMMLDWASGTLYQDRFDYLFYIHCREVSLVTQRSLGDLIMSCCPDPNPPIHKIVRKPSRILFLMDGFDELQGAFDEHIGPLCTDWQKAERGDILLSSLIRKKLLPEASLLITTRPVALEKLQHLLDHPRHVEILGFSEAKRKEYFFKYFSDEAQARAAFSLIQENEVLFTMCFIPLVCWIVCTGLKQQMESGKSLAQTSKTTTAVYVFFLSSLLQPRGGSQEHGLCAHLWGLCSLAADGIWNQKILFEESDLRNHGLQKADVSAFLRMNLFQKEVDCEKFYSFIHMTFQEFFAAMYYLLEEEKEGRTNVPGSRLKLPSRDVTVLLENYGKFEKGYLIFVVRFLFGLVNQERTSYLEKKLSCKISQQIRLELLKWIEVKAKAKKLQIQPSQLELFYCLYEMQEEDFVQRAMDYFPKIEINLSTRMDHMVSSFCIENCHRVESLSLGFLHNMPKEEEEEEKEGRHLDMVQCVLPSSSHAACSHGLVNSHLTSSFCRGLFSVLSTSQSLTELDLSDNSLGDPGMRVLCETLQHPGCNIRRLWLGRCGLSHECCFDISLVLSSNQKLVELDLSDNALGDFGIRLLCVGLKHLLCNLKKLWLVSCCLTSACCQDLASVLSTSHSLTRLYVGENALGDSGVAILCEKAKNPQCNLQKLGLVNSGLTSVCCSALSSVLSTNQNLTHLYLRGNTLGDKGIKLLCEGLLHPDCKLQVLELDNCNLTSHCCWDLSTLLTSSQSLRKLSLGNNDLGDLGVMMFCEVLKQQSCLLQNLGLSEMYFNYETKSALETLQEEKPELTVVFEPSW

SMILES	EC50 [µM]
CN(C)C(=O)CCCn1c(CN2CCCC2=O)nc2c(N)nc3cc(Br)ccc3c21 [Compound 215]	18.2
COC(=O)CCCn1c(CN2CCCC2=O)nc2c(N)nc3cc(Cl)ccc3c21 [Compound 216]	6.6
CCN(Cc1nc2c(N)nc3cc(Cl)ccc3c2n1CCCC(=O)NC)C(C)=O [Compound 217]	96
CCN(Cc1nc2c(N)nc3cc(Br)ccc3c2n1CCCC(=O)OC)C(C)=O [Compound 218]	1.2
CCN(Cc1nc2c(N)nc3cc(Cl)ccc3c2n1CCCC(=O)OC)C(C)=O [Compound 219]	2
CCN(Cc1nc2c(N)nc3cc(Cl)ccc3c2n1CCCC(=O)N1CCOCC1)C(C)=O [Compound 220]	51
CCN(Cc1nc2c(N)nc3cc(Cl)ccc3c2n1CCCC(=O)N1CCN(C)CC1)C(C)=O [Compound 221]	85
CCN(Cc1nc2c(N)nc3cc(Cl)ccc3c2n1CCCC(=O)N1CCCC1)C(C)=O [Compound 222]	42
CCN(Cc1nc2c(N)nc3ccccc3c2n1CCC(=O)N1CCS(=O)(=O)CC1)C(=O)OC(C)(C)C [Compound 223]	77
CCNCc1nc2c(N)nc3cc(Br)ccc3c2[nH]1 [Compound 225]	10.9
CCN(Cc1nc2c(N)nc3cc(C(F)(F)F)ccc3c2n1CCCC(=O)NC)C(=O)OC(C)(C)C [Compound 226]	85
CCNCc1nc2c(N)nc3cc(C(F)(F)F)ccc3c2n1CCCC(=O)OC [Compound 227]	22.7
CCN(Cc1nc2c(N)nc3cc(C(F)(F)F)ccc3c2n1CCCC(=O)N1CCOCC1)C(=O)OC(C)(C)C [Compound 228]	93
CCN(Cc1nc2c(N)nc3cc(C(F)(F)F)ccc3c2n1CCCC(=O)OC)C(C)=O [Compound 229]	12.3
COc1ccc(-c2ccc3c(c2)nc(N)c2nc(CN4CCCC4=O)[nH]c23)cc1 [Compound 230]	4.5
CC(=O)NCc1nc2c(N)nc3ccccc3c2[nH]1 [Compound 233]	120
Nc1nc2ccccc2c2[nH]c(CN3CCCC3=O)nc12 [Compound 278]	10.8
Nc1nc2cc(-c3cccnc3)ccc2c2[nH]c(CN3CCCC3=O)nc12 [Compound 279, 1-[(4-amino-7-pyridin-3-yl-1H-imidazo[4,5-c]quinolin-2-yl)methyl]pyrrolidin-2-one]	7.5

SMILES	EC50 [µM]
Nc1nc2cc(-c3ccccc3)ccc2c2[nH]c(CN3CCCC3=O)nc12 [Compound 280, 1-[(4-amino-7-phenyl-1H-imidazo[4,5-c]quinolin-2-yl)methyl]pyrrolidin-2-one]	0.22
Nc1nc2cc(-c3ccccc3Cl)ccc2c2[nH]c(CN3CCCC3=O)nc12 [Compound 281, 1-[[4-amino-7-(2-chlorophenyl)-1H-imidazo[4,5-c]quinolin-2-yl]methyl]pyrrolidin-2-one]	1.4
Cc1ccccc1-c1ccc2c(c1)nc(N)c1nc(CN3CCCC3=O)[nH]c12 [Compound 282, 1-[[4-amino-7-(2-methylphenyl)-1H-imidazo[4,5-c]quinolin-2-yl]methyl]pyrrolidin-2-one]	4.8
COc1ccccc1-c1ccc2c(c1)nc(N)c1nc(CN3CCCC3=O)[nH]c12 [Compound 283, 1-[[4-amino-7-(2-methoxyphenyl)-1H-imidazo[4,5-c]quinolin-2-yl]methyl]pyrrolidin-2-one]	6.5
Nc1nc2cc(-c3ccccc3F)ccc2c2[nH]c(CN3CCCC3=O)nc12 [Compound 284, 1-[[4-amino-7-(2-fluorophenyl)-1H-imidazo[4,5-c]quinolin-2-yl]methyl]pyrrolidin-2-one]	0.86
Nc1nc2cc(-c3cccc(Cl)c3)ccc2c2[nH]c(CN3CCCC3=O)nc12 [Compound 285, 1-[[4-amino-7-(3-chlorophenyl)-1H-imidazo[4,5-c]quinolin-2-yl]methyl]pyrrolidin-2-one]	5.7
Cc1cccc(-c2ccc3c(c2)nc(N)c2nc(CN4CCCC4=O)[nH]c23)c1 [Compound 286, 1-[[4-amino-7-(3-methylphenyl)-1H-imidazo[4,5-c]quinolin-2-yl]methyl]pyrrolidin-2-one]	0.61
COc1cccc(-c2ccc3c(c2)nc(N)c2nc(CN4CCCC4=O)[nH]c23)c1 [Compound 287, 1-[[4-amino-7-(3-methoxyphenyl)-1H-imidazo[4,5-c]quinolin-2-yl]methyl]pyrrolidin-2-one]	1.08
N#Cc1cccc(-c2ccc3c(c2)nc(N)c2nc(CN4CCCC4=O)[nH]c23)c1 [Compound 288, 3-[4-amino-2-[(2-oxopyrrolidin-l-yl)methyl]-1H-imidazo[4,5-c]quinolin-7-yl]benzonitrile]	10.1
Nc1nc2cc(-c3cccc(F)c3)ccc2c2[nH]c(CN3CCCC3=O)nc12 [Compound 289, 1-[[4-amino-7-(3-fluorophenyl)-1H-imidazo[4,5-c]quinolin-2-yl]methyl]pyrrolidin-2-one]	1.58
Cc1ccc(-c2ccc3c(c2)nc(N)c2nc(CN4CCCC4=O)[nH]c23)cc1 [Compound 291, 1-[[4-amino-7-(4-methylphenyl)-1H-imidazo[4,5-c]quinolin-2-yl]methyl]pyrrolidin-2-one]	0.11
Nc1nc2cc(Br)ccc2c2[nH]c(CN3CCCC3=O)nc12 [Compound 294, 1-[(4-amino-7-bromo-1H-imidazo[4,5-c]quinolin-2-yl)methyl]pyrrolidin-2-one]	4.6
Nc1nc2cc(-n3cccn3)ccc2c2[nH]c(CN3CCCC3=O)nc12 [Compound 295, 1-[(4-amino-7-pyrazol-1-yl-1H-imidazo[4,5-c]quinolin-2-yl)methyl]pyrrolidin-2-one]	1.2
Cc1cnn(-c2ccc3c(c2)nc(N)c2nc(CN4CCCC4=O)[nH]c23)c1 [Compound 296, 1-[[4-amino-7-(4-methylpyrazol-1-yl)-1H-imidazo[4,5-c]quinolin-2-yl]methyl]pyrrolidin-2-one]	5.1
Nc1nc2cc(C3CCOCC3)ccc2c2[nH]c(CN3CCCC3=O)nc12 [Compound 298, 1-[[4-amino-7-(oxan-4-yl)-1H-imidazo[4,5-c]quinolin-2-yl]methyl]pyrrolidin-2-one]	21
Cc1ccn(-c2ccc3c(c2)nc(N)c2nc(CN4CCCC4=O)[nH]c23)n1 [Compound 301, 1-[[4-amino-7-(3-methylpyrazol-1-yl)-1H-imidazo[4,5-c]quinolin-2-yl]methyl]pyrrolidin-2-one]	2.93
Nc1nc2cc(C3CCCCC3)ccc2c2[nH]c(CN3CCCC3=O)nc12 [Compound 302, 1-[(4-amino-7-cyclohexyl-1H-imidazo[4,5-c]quinolin-2-yl)methyl]pyrrolidin-2-one]	0.93
CC(c1nc2c(N)nc3cc(Br)ccc3c2[nH]1)N1CCCC1=O (stereo not drawn) [Compound 303, 1-[1-(4-amino-7-bromo-1H-imidazo[4,5-c]quinolin-2-yl)ethyl]pyrrolidin-2-one]	11.1
